Measured values published in US20250032580A1, “USE OF ADNF POLYPEPTIDES IN THERAPY” (RAMOT AT TEL-AVIV UNIVERSITY LTD., priority 2021, published 2025).

Assays:
Format in all cases: cell-based, mouse
[1] = tested on: differentiated N1E-115 cells; assay: FRAP of mCherry-Tau (Tau-MT interaction)
Description: (§1) Cell culture—Mouse neuroblastoma NIE-115 cells were maintained in Dulbecco's modified Eagle's medium, 10% fetal bovine serum, 2 mM glutamine and 100 U ml—1 penicillin, […] ml—1 streptomycin (Biological Industries, Beit Haemek, Israel). The cells were incubated in 95% air/5% CO2 in a humidified incubator at 37° C.
(§2) Cell differentiation and co-transfection of overexpression plasmids—Cultured NIE-115 cells were plated on 35 mm dishes (81156, 60μ-Dish, Ibidi, Martinsried, Germany) at a concentration of 1.25×10^4 cells per dish and then were differentiated with reduced fetal bovine serum (2%) and DMSO (1.25%) containing medium for 5 days before transfection. 48 hrs before experiments N1E-115 cells were co-transfected with 1 μg EB3-RFP or mCherry-Tau (3R) plasmid with or without 2 μg of plasmids, coding to GFP conjugated to full-length human ADNP, or ADNP carried mutations. 1:3 ratios between total amount of transfected DNA and transfection reagent were used according to manufacture guidance (Lipofectamine2000, Thermo Fisher Scientific, Waltham, MA, USA) in all subsequent experiments.
Fluorescence recovery after photobleaching (FRAP)—Differentiated NIE-115 cells were transfected with mCherry-Tau with or without GFP-conjugated to full-length ADNP or mutated ADNP, and imaged 48 hrs after transfection. An ROI for photobleaching was drowned in the proximal cell branches. mCherry-Tau was bleached with a […], and fluorescence recovery was collected within wavelengths of 610-650 nm. 80 images were taken every 0.74 sec immediately after bleaching. After FRAP imaging all samples were also treated with NAP in final concentrations of 10^−12 M, and after 4 hrs time-lapse imaging was done again under the same conditions. FRAP imaging for assessment difference between NAP and SKIP (SEQ ID NO: 21) activity was performed after an hour of ZnCl2 treatment (400 μM final concentration; Sigma, Rehovot, Israel) with or without NAP/SKIP (10^−12 M final concentration). Fluorescence signals were quantified with Fiji, obtained data were normalized with easyFRAP [82, 83] and FRAP recovery curves were fitted by a one-phase exponential association function by GraphPad Prism6 (GraphPad Software, Inc., La Jolla, CA, USA) while samples with R^2<0.9 were excluded.
Next, the effect of full-length/truncated ADNP forms with or without NAP treatment on Tau-MT interaction was examined by fluorescence recovery after photobleaching (FRAP) (FIGS. 8A-C). FRAP was performed with mCherry-tagged Tau protein (FIG. 8A). […] Therefore, the immobile mCherry-Tau fraction reflects the rate of Tau association with MTs.

[2] = tested on: differentiated N1E-115 cells; assay: Live imaging of EB3 comet-like structures (MT dynamics); conditions: 10^−12 M, 4 hrs
Description: as §1, §2
Live Imaging—48 hrs after transfection, differentiated NIE-115 cells (expressing EB3-RFP with or without GFP-conjugated to full-length ADNP or mutated ADNP) were incubated at 37° C. with a 5% CO2/95% air mixture in a thermostatic chamber placed on the stage of a Leica TCS SP5 confocal microscope (objective 100× (PL Apo) oil immersion, NA 1.4). Time-lapse images were automatically captured 3 sec during 1 min, using the Leica LAS AF software. After imaging all samples were also treated with NAP (SEQ ID NO: 2) or SKIP (SEQ ID NO: 21) in final concentrations of 10^−12 M, and after 4 hrs time-lapse imaging was done again under the same conditions. Data was collected and analyzed by Imaris software.
To evaluate the effect of ADNP truncated proteins on MT dynamics time-lapse imaging of EB3 comet-like structures formed by RFP-tagged EB3 proteins that bind to MT plus-ends was performed. Two parameters of EB3 activity were used to assess MT dynamics—track length and track speed of EB3 comets, which reflect the length of freshly growing MTs and the speed of MT assembly, respectively. Furthermore, the present inventors aimed to determine whether NAP (10^−12 M for 4 hrs) could prevent the deleterious effect of ADNP mutations.

N1E-115 cells = assay: Polymerized vs. soluble tubulin assay; conditions: zinc 400 μM, 4 h, peptide 10^−12 M
Description: Polymerized vs. soluble tubulin assay—To quantify tubulin polymerization and Tau-MT association, a simple assay was performed as previously described. The cells grown to confluence in six-well plates were washed with MT buffer (80 mM PIPES pH 6.8, 1 mM MgCl^2, 2 mM EGTA, 5% Glycerol) and lysed at room temperature for 5 min through centrifugation (300 g), with 150 μl of MT buffer with 0.5% Triton X-100 to extract soluble (cytosolic) tubulin (S). The pelleted cells were rinsed once again with an equal volume of modified RIPA lysis buffer (50 mM Tris-HCL pH 7.4, 150 mM NaCl, 2 mM EGTA, 1% Triton X-100, 0.1% SDS, 0.1% sodium Deoxycholate) to collect the polymerized (cytoskeletal) tubulin (P). The cytosolic and cytoskeletal fractions were each mixed with sample buffer and heated at 95° C. for 5 min. An equal volume of each fraction was analyzed by immunoblotting with Tau, tubulin and actin antibodies, and the results following ECL development were quantified by densitometry (GelQuant.NET software provided by biochemlabsolutions(dot)com).
It is known that in the presence of extracellular zinc NAP protects MT against degradation by promoting Tau binding to the MT shaft. Polymerized vs. soluble tubulin assay was effected to compare protective activities of NAP and SKIP against MT degradation and Tau-MT dissociation (FIGS. 11F-G). After treatments with zinc (400 μM, 4 h) with and without NAP or SKIP (10^−12 M, 4 h) the cellular-tubulin pool was separated into polymerized and soluble tubulin fractions. The amount of Tau, tubulin, and actin was identified by immunoblotting (FIG. 11F), followed by densitometric quantification (FIG. 11G).

Molecule | Tau immobile fraction in comparison to non-treated control ([1]; 400 μM, 1 h) | Difference between effects of NAP and SKIP on EB3 track length and speed [2] | EB3 track length and speed compared to non-treated control ([2]; no ADNP plasmid) | Efficacy in terms of MT-Tau interactions, as compared with NAP ([1]; summary of results) | Tau immobile fraction under zinc ([1]; zinc 400 μM, 1 h, together with peptide 10^−12 M) | Protection against Tau dissociation from MTs (N1E-115 cells) | Protection of polymerized tubulin against zinc-induced decay (N1E-115 cells)
[Cl-].[Cl-].[Zn+2] [zinc, ZnCl2, reference compound] | significantly attenuated |  |  |  |  |  | 
SKIP |  | no significant differences | increased EB3 track length and speed | reduced efficacy | prevented zinc adverse effect | only NAP exhibited protection | protected against zinc-induced decay
